Experimental data published in US12391737B2, “Soluble NPY2 receptor agonists” (Boehringer Ingelheim International GmbH, priority 2020, dated 2025).
pKi: −log10 of the molar value. *1 amine or outer side, *2 acyl side, *3 side chain or, on linkers, in order; H or OH if unused. Where a SMILES comes first, the peptide text is derived from it. Side-chain parts run from the residue outwards. The star is where a group is joined. C18 diacid = O=C(O)CCCCCCCCCCCCCCCCC(=O)*; γGlu = O=C(O)[C@H](CCC(=O)[*:2])N[*:1]; Isovaleryl = CC(C)CC(=O)*; Ahx = NCCCCCC(=O)O

Columns and labels:
[1] = target: T1, Human Neuropeptide Y2 Receptor (Homo sapiens, UniProt P49146); assay: Radioligand binding competition assay (RLB); conditions: Table 3, 125I-PYY(1-36) competition; read-out: Ki
T1 construct: purchased CHEMICON HTS066M
T1 sequence (P49146 1-381): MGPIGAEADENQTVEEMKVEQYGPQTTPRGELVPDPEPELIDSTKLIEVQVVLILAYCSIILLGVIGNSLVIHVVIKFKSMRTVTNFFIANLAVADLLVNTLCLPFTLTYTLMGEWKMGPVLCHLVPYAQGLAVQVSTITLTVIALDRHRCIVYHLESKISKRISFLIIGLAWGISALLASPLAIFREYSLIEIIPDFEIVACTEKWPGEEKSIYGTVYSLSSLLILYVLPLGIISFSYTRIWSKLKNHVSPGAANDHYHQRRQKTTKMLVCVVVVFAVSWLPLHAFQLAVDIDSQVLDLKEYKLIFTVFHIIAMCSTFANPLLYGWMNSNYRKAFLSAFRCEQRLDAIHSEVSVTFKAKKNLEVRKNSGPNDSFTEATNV
In short: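 Peptides were serially diluted from 1 mM DMSO stocks and competed for radioligand binding to receptor membranes (0.5 μg/well) over 2 h at room temperature, pH 7.4 HEPES buffer. Bound radioactivity on filters was counted by scintillation, and IC50 was derived by nonlinear regression.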

Solubility determination = conditions: for Sol6: pH 6; for Sol7: pH 7
In short: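 Sample: TFA-salt peptide at 10 mg/ml target in 0.1 M Na diphosphate, pH 6.4 or 7.0, shaken 2 h RT, filtered, diluted to 1 mg/ml.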

Compound | pKi [1] | Sol6 (Solubility determination) [mg/mL] | Sol7 (Solubility determination) [mg/mL]
CC(C)CC(=O)N[C@@H](C)C(=O)N1CCC[C@H]1C(=O)N[C@@H](CCC(=O)O)C(=O)N[C@@H](CCCCNC(=O)CCCCCNC(=O)CC[C@H](NC(=O)CCCCCCCCCCCCCCCCC(=O)O)C(=O)O)C(=O)N1CCC[C@H]1C(=O)N[C@@H](CCC(=O)O)C(=O)N[C@@H](CCC(=O)O)C(=O)N[C@@H](CC(=O)O)C(=O)N[C@@H](CC(C)C)C(=O)N[C@H](C(=O)N1CCC[C@H]1C(=O)N[C@@H](CCC(=O)O)C(=O)N[C@@H](CCC(=O)O)C(=O)N[C@@H](CC(C)C)C(=O)N[C@@H](CCC(N)=O)C(=O)N[C@@H](CCCNC(=N)N)C(=O)N[C@@H](Cc1ccc(O)cc1)C(=O)N[C@@H](Cc1ccc(O)cc1)C(=O)N[C@H](C(=O)N[C@@H](CO)C(=O)N[C@@H](CC(C)C)C(=O)N[C@@H](CCCNC(=N)N)C(=O)N[C@@H](Cc1c[nH]cn1)C(=O)N[C@@H](Cc1ccc(O)cc1)C(=O)N[C@@H](Cc1ccc(O)cc1)C(=O)N[C@@H](CC(N)=O)C(=O)N[C@@H](Cc1c[nH]c2ccccc12)C(=O)N[C@@H](CC(C)C)C(=O)N[C@H](C(=O)N[C@@H](CCCNC(=N)N)C(=O)N[C@@H](CCC(N)=O)C(=O)N[C@@H](CCCNC(=N)N)C(=O)N[C@@H](Cc1ccc(O)cc1)C(N)=O)[C@@H](C)O)C(C)C)[C@@H](C)O [Compound 109, N{alpha-4}-(3-methylbutanoyl)-N{epsilon-7}-(6-[(4S)-4-carboxy-4-(17-carboxyheptadecanamido)butanamido]hexanoyl)-[4A,7K,9E,12L,13T,18Q,22V,28Y,30W,31L]-hPYY(4-36)] | 7.85 | 10.0 | 8.5
CC[C@H](C)[C@H](NC(=O)[C@H](CCC(=O)O)NC(=O)[C@H](CCC(=O)O)NC(=O)[C@@H]1CCCN1C(=O)[C@@H](NC(=O)[C@H](C)NC(=O)[C@H](CC(=O)O)NC(=O)[C@H](CCC(=O)O)NC(=O)[C@H](CCC(=O)O)NC(=O)[C@@H]1CCCN1C(=O)[C@H](CCCCNC(=O)CCCCCNC(=O)CC[C@H](NC(=O)CCCCCCCCCCCCCCCCC(=O)O)C(=O)O)NC(=O)[C@H](CCC(=O)O)NC(=O)[C@@H]1CCCN1C(=O)[C@H](C)NC(=O)CC(C)C)[C@@H](C)O)C(=O)N[C@@H](CCC(N)=O)C(=O)N[C@@H](CCCNC(=N)N)C(=O)N[C@@H](Cc1ccc(O)cc1)C(=O)N[C@@H](Cc1ccc(O)cc1)C(=O)N[C@@H](CCC(=O)O)C(=O)N[C@@H](CO)C(=O)N[C@@H](CC(C)C)C(=O)N[C@@H](CCCNC(=N)N)C(=O)N[C@@H](Cc1c[nH]cn1)C(=O)N[C@@H](Cc1ccc(O)cc1)C(=O)N[C@@H](Cc1ccc(O)cc1)C(=O)N[C@@H](CC(N)=O)C(=O)N[C@@H](Cc1c[nH]c2ccccc12)C(=O)N[C@@H](CC(C)C)C(=O)N[C@H](C(=O)N[C@@H](CCCNC(=N)N)C(=O)N[C@@H](CCC(N)=O)C(=O)N[C@@H](CCCNC(=N)N)C(=O)N[C@@H](Cc1ccc(O)cc1)C(N)=O)[C@@H](C)O [Compound 191, N{alpha-4}-(3-methylbutanoyl)-N{epsilon-7}-(6-[(4S)-4-carboxy-4-(17-carboxyheptadecanamido)butanamido]hexanoyl)-[4A,7K,9E,13T,17I,18Q,22E,28Y,30W,31L]-hPYY(4-36)] | 8.08 | >10.0 | >10.0
CC[C@H](C)[C@H](NC(=O)[C@H](Cc1ccc(O)cc1)NC(=O)[C@H](Cc1ccc(O)cc1)NC(=O)[C@H](CCCNC(=N)N)NC(=O)[C@H](CCC(N)=O)NC(=O)[C@H](CC(C)C)NC(=O)[C@H](CCC(=O)O)NC(=O)[C@H](CCC(=O)O)NC(=O)[C@@H]1CCCN1C(=O)[C@H](CCC(=O)O)NC(=O)[C@H](C)NC(=O)[C@H](CC(=O)O)NC(=O)[C@H](C)NC(=O)[C@H](CCC(=O)O)NC(=O)[C@@H]1CCCN1C(=O)[C@H](CCCCNC(=O)CCCCCNC(=O)CC[C@H](NC(=O)CCCCCCCCCCCCCCCCC(=O)O)C(=O)O)NC(=O)[C@H](CCC(=O)O)NC(=O)[C@@H]1CCCN1C(=O)[C@H](C)NC(=O)CC(C)C)C(=O)N[C@@H](CO)C(=O)N[C@@H](CC(C)C)C(=O)N[C@@H](CCCNC(=N)N)C(=O)N[C@@H](Cc1c[nH]cn1)C(=O)N[C@@H](Cc1ccc(O)cc1)C(=O)N[C@@H](Cc1ccc(O)cc1)C(=O)N[C@@H](CC(N)=O)C(=O)N[C@@H](Cc1c[nH]c2ccccc12)C(=O)N[C@@H](CC(C)C)C(=O)N[C@H](C(=O)N[C@@H](CCCNC(=N)N)C(=O)N[C@@H](CCC(N)=O)C(=O)N[C@@H](CCCNC(=N)N)C(=O)N[C@@H](Cc1ccc(O)cc1)C(N)=O)[C@@H](C)O [Compound 159, N{alpha-4}-(3-methylbutanoyl)-N{epsilon-7}-(6-[(4S)-4-carboxy-4-(17-carboxyheptadecanamido)butanamido]hexanoyl)-[4A,7K,9E,10A,13E,18Q,22I,28Y,30W,31L]-hPYY(4-36)] (Isovaleryl-APEK([Ahx-γGlu-C18 diacid])PEADAEPEELQRYYISLRHYYNWLTRQRY-NH2) | 8.56 | >10.0 | 10.0

Results, then the molecule that gave them:

pKi [1] | Sol6 (Solubility determination) [mg/mL] | Sol7 (Solubility determination) [mg/mL] | Compound
8.87 | 9.9 | 10.0 | CC(C)CC(=O)N[C@@H](C)C(=O)N1CCC[C@H]1C(=O)N[C@@H](CCC(=O)O)C(=O)N[C@@H](CCCCNC(=O)CCCCCNC(=O)CC[C@H](NC(=O)CCCCCCCCCCCCCCCCC(=O)O)C(=O)O)C(=O)N1CCC[C@H]1C(=O)N[C@@H](CCC(=O)O)C(=O)N[C@@H](C)C(=O)N[C@@H](CC(=O)O)C(=O)N[C@@H](CO)C(=O)N[C@@H](CO)C(=O)N1CCC[C@H]1C(=O)N[C@@H](CCC(=O)O)C(=O)N[C@@H](CCC(=O)O)C(=O)N[C@@H](CC(C)C)C(=O)N[C@@H](CCC(N)=O)C(=O)N[C@@H](CCCNC(=N)N)C(=O)N[C@@H](Cc1ccc(O)cc1)C(=O)N[C@@H](Cc1ccc(O)cc1)C(=O)N[C@H](C(=O)N[C@@H](CO)C(=O)N[C@@H](CC(C)C)C(=O)N[C@@H](CCCNC(=N)N)C(=O)N[C@@H](Cc1c[nH]cn1)C(=O)N[C@@H](Cc1ccc(O)cc1)C(=O)N[C@@H](Cc1ccc(O)cc1)C(=O)N[C@@H](CC(N)=O)C(=O)N[C@@H](Cc1c[nH]c2ccccc12)C(=O)N[C@@H](CC(C)C)C(=O)N[C@H](C(=O)N[C@@H](CCCNC(=N)N)C(=O)N[C@@H](CCC(N)=O)C(=O)N[C@@H](CCCNC(=N)N)C(=O)N[C@@H](Cc1ccc(O)cc1)C(N)=O)[C@@H](C)O)C(C)C [Compound 29, N{alpha-4}-(3-methylbutanoyl)-N{epsilon-7}-(6-[(4S)-4-carboxy-4-(17-carboxyheptadecanamido)butanamido]hexanoyl)[4A,7K,9E,10A,12S,18Q,22V,28Y,30W,31L]-hPYY(4-36)] (Isovaleryl-APEK([Ahx-γGlu-C18 diacid])PEADSSPEELQRYYVSLRHYYNWLTRQRY-NH2)
8.47 | 10.0 | >10.0 | CC(C)CC(=O)N[C@@H](C)C(=O)N1CCC[C@H]1C(=O)N[C@@H](CCC(=O)O)C(=O)N[C@@H](CCCCNC(=O)CCCCCNC(=O)CC[C@H](NC(=O)CCCCCCCCCCCCCCCCC(=O)O)C(=O)O)C(=O)N1CCC[C@H]1C(=O)N[C@@H](CCC(=O)O)C(=O)N[C@@H](CCC(=O)O)C(=O)N[C@@H](CC(=O)O)C(=O)N[C@@H](CO)C(=O)N[C@H](C(=O)N1CCC[C@H]1C(=O)N[C@@H](CCC(=O)O)C(=O)N[C@@H](CCC(=O)O)C(=O)N[C@@H](CC(C)C)C(=O)N[C@@H](CCC(N)=O)C(=O)N[C@@H](CCCNC(=N)N)C(=O)N[C@@H](Cc1ccc(O)cc1)C(=O)N[C@@H](Cc1ccc(O)cc1)C(=O)N[C@H](C(=O)N[C@@H](CO)C(=O)N[C@@H](CC(C)C)C(=O)N[C@@H](CCCNC(=N)N)C(=O)N[C@@H](Cc1c[nH]cn1)C(=O)N[C@@H](Cc1ccc(O)cc1)C(=O)N[C@@H](Cc1ccc(O)cc1)C(=O)N[C@@H](CC(N)=O)C(=O)N[C@@H](Cc1c[nH]c2ccccc12)C(=O)N[C@@H](CC(C)C)C(=O)N[C@H](C(=O)N[C@@H](CCCNC(=N)N)C(=O)N[C@@H](CCC(N)=O)C(=O)N[C@@H](CCCNC(=N)N)C(=O)N[C@@H](Cc1ccc(O)cc1)C(N)=O)[C@@H](C)O)C(C)C)[C@@H](C)O [Compound 143, N{alpha-4}-(3-methylbutanoyl)-N{epsilon-7}-(6-[(4S)-4-carboxy-4-(17-carboxyheptadecanamido)butanamido]hexanoyl)-[4A,7K,9E,12S,13T,18Q,22V,28Y,30W,31L]-hPYY(4-36)]
